Consider 23 molecules from patent publication US8816085B2 (Takeda GmbH, priority 2009, dated 2014).

For the experiment, the target named is T1, PDE5A1 (human PDE5 from platelets) (Homo sapiens, UniProt O76074).
T1 construct: from tissue; host or cells: platelets from fresh blood of human donors (10,000 g supernatant of sonified platelets)
The experiment in a line: Inhibition of type 5 phosphodiesterase (PDE5) activity, modified SPA test. It is filed as biochemical. As to conditions: PDE5-containing human platelet lysate, 0.5 μM cGMP, value classes, read-out: PDE5A1 inhibitory values [measured as −logIC50 (mol/l)] (converted). As for the experimental part: Method for Measuring Inhibition of the Type 5 Phosphodiesterase (PDE5) Activity:
As a source for human PDE5, platelets are used. For that purpose, 150 ml fresh blood from human donors anticoagulated with citrate [final concentration 0.3% (w/v)] is centrifuged at 200 g for 10 min to obtain the so-called platelet-rich-plasma (PRP) as a supernatant. 1/10 volume of ACD solution (85 mM Na3-citrate, 111 mM D-glucose, 71 mM citric acid, pH 4.4) is added to 9/10 volume of PRP. After centrifugation (1,400 g, 10 min) the cell pellet is resuspended in 3 ml homogenization buffer (NaCl 140 mM, KCl 3.8 mM, EGTA (ethylene glycol tetraacetic acid) 1 mM, MgCl2 1 mM, Tris-HCl 20 mM, beta-mercaptoethanol 1 mM, pH 8.2) plus protease-inhibitor mix giving rise to the final concentrations of 0.5 mM Pefablock (Roche), 10 μM Leupeptin, 5 μM Trypsininhibitor, 2 mM Benzamidin and 10 μM Pepstatin A. The suspension is sonified and thereafter centrifuged for 15 min at 10,000 g. The resulting supernatant (platelet lysate) is used for enzymatic testings.
PDE5A1 activity is inhibited by the compounds of the present subject matter in a modified SPA (scintillation proximity assay) test, supplied by Amersham Biosciences (see procedural instructions “phosphodiesterase [3H]cAMP SPA enzyme assay, code TRKQ 7090”), carried out in 96-well microtitre plates (MTP's). The test volume is 100 μl and contains 20 mM Tris buffer (pH 7.4), 0.1 mg of BSA (bovine serum albumin)/ml, 5 mM Mg^2+, 1 μM motapizone, 10 nM PDE2 inhibitor 2-(3,4-dimethoxybenzyl)-7-[(1R,2R)-2-hydroxy-1-(2-phenylethyl)propyl]-5-methylimidazo[5,1-t][1,2,4]triazin-4(3H)-one, 0.5 μM cGMP (cyclic guanosine monophosphate) (including about 50,000 cpm of [3H]cGMP as a tracer), 1 μl of the respective compound dilution in dimethylsulfoxide (DMSO) and sufficient PDE5-containing platelet lysat (10,000×g supernatant, see above) to ensure that 10-20 wt % of the cGMP is converted under the said experimental conditions. […] After a preincubation of 5 min at 37° C., the reaction is started by adding the substrate (cGMP) and the assay is incubated for a further 15 min; after that, it is stopped by adding SPA beads (50 μl). In accordance with the manufacturer's instructions, the SPA beads had previously been resuspended in water, but are then diluted 1:3 (v/v) in water; the diluted solution also contains 3 mM 8-methoxymethyl-3-isobutyl-1-methylxanthine (IBMX) to ensure a complete PDE activity stop. After the beads have been sedimented (>30 min), the MTP's are analyzed in commercially available luminescence detection devices. The corresponding IC50 values of the compounds for the inhibition of PDE activity are determined from the concentration-effect curves by means of non-linear regression.
As to `CCOC(=O)N1CCC(NC(=O)c2c(C)[nH]c3c(-c4c(OCC5CC5)ccc5c4OCO5)ccnc23)CC1` [Example E04, Ethyl 4-[({7-[5-(cyclopropylmethoxy)-1,3-benzodioxol-4-yl]-2-methyl-1H-pyrrolo[3,2-b]pyridin-3-yl}carbonyl)amino]piperidine-1-carboxylate], the IC50 is < 1 nM.

Regarding `CC(=O)N[C@H]1CC[C@H](NC(=O)c2c(C)[nH]c3c(-c4c(OCC5CC5)ccc5c4OCO5)ccnc23)CC1` [Example E05, N-(trans-4-Acetamidocyclohexyl)-7-[5-(cyclopropylmethoxy)-1,3-benzodioxol-4-yl]-2-methyl-1H-pyrrolo[3,2-b]pyridine-3-carboxamide], the IC50 is < 1 nM.

As to `CC(=O)N[C@H]1CC[C@@H](NC(=O)c2c(C)[nH]c3c(-c4c(OCC5CC5)ccc5c4OCO5)ccnc23)CC1` [Example E06, N-(cis-4-acetamidocyclohexyl)-7-[5-(cyclopropylmethoxy)-1,3-benzodioxol-4-yl]-2-methyl-1H-pyrrolo[3,2-b]pyridine-3-carboxamide], the IC50 was < 1 nM.

With `CCC(=O)N[C@H]1CC[C@@H](NC(=O)c2c(C)[nH]c3c(-c4c(OCC5CC5)ccc5c4OCO5)ccnc23)CC1` [Example E07, 7-[5-(Cyclopropylmethoxy)-1,3-benzodioxol-4-yl]-2-methyl-N-[cis-4-(propionylamino)cyclohexyl]-1H-pyrrolo[3,2-b]pyridine-3-carboxamide], the IC50 is < 1 nM.

On to `COCC(=O)N[C@H]1CC[C@@H](NC(=O)c2c(C)[nH]c3c(-c4c(OCC5CC5)ccc5c4OCO5)ccnc23)CC1` [Example E08, 7-[5-(Cyclopropylmethoxy)-1,3-benzodioxol-4-yl]-N-{cis-4-[(methoxyacetyl)amino]cyclohexyl}-2-methyl-1H-pyrrolo[3,2-b]pyridine-3-carboxamide], for which the IC50 is < 1 nM.

Turning to `CCOC(=O)N[C@H]1CC[C@@H](NC(=O)c2c(C)[nH]c3c(-c4c(OCC5CC5)ccc5c4OCO5)ccnc23)CC1` [Example E09, Ethyl {cis-4-[({7-[5-(cyclopropylmethoxy)-1,3-benzodioxol-4-yl]-2-methyl-1H-pyrrolo[3,2-b]pyridin-3-yl}carbonyl)amino]cyclohexyl}carbamate], the IC50 was < 1 nM.

In the case of `CC(=O)N1CCC(NC(=O)c2c(C)[nH]c3c(-c4ccc(F)cc4OCC4CC4)ccnc23)CC1` [Example E10, N-(1-Acetylpiperidin-4-yl)-7-[2-(cyclopropylmethoxy)-4-fluorophenyl]-2-methyl-1H-pyrrolo[3,2-b]pyridine-3-carboxamide], the IC50 was < 1 nM.

`CCC(=O)N1CCC(NC(=O)c2c(C)[nH]c3c(-c4ccc(F)cc4OCC4CC4)ccnc23)CC1` [Example E11, 7-[2-(Cyclopropylmethoxy)-4-fluorophenyl]-2-methyl-N-(1-propanoylpiperidin-4-yl)-1H-pyrrolo[3,2-b]pyridine-3-carboxamide]: the IC50 is < 1 nM.

For `COCC(=O)N1CCC(NC(=O)c2c(C)[nH]c3c(-c4ccc(F)cc4OCC4CC4)ccnc23)CC1` [Example E12, 7-[2-(Cyclopropylmethoxy)-4-fluorophenyl]-N-[1-(methoxyacetyl)piperidin-4-yl]-2-methyl-1H-pyrrolo[3,2-b]pyridine-3-carboxamide], the IC50 was 1 to 10 nM.

In the case of `CC(=O)N[C@H]1CC[C@H](NC(=O)c2c(C)[nH]c3c(-c4ccc(F)cc4OCC4CC4)ccnc23)CC1` [Example E13, N-[trans-4-(Acetylamino)cyclohexyl]-7-[2-(cyclopropylmethoxy)-4-fluorophenyl]-2-methyl-1H-pyrrolo[3,2-b]pyridine-3-carboxamide], the IC50 was < 1 nM.

Turning to `CCC(=O)N[C@H]1CC[C@H](NC(=O)c2c(C)[nH]c3c(-c4ccc(F)cc4OCC4CC4)ccnc23)CC1` [Example E14], the IC50 is < 1 nM.

With `COCC(=O)N[C@H]1CC[C@H](NC(=O)c2c(C)[nH]c3c(-c4ccc(F)cc4OCC4CC4)ccnc23)CC1` [Example E15, 7-[2-(Cyclopropylmethoxy)-4-fluorophenyl]-N-{trans-4-[(methoxyacetyl)amino]cyclohexyl}-2-methyl-1H-pyrrolo[3,2-b]pyridine-3-carboxamide], the IC50 is < 1 nM.

As to `CC(=O)N[C@H]1CC[C@@H](NC(=O)c2c(C)[nH]c3c(-c4ccc(F)cc4OCC4CC4)ccnc23)CC1` [Example E16, N-[cis-4-(Acetylamino)cyclohexyl]-7-[2-(cyclopropylmethoxy)-4-fluorophenyl]-2-methyl-1H-pyrrolo[3,2-b]pyridine-3-carboxamide], the IC50 was 1 to 10 nM.

In the case of `CCC(=O)N[C@H]1CC[C@@H](NC(=O)c2c(C)[nH]c3c(-c4ccc(F)cc4OCC4CC4)ccnc23)CC1` [Example E17], the IC50 was 1 to 10 nM.

Consider `COCC(=O)N[C@H]1CC[C@@H](NC(=O)c2c(C)[nH]c3c(-c4ccc(F)cc4OCC4CC4)ccnc23)CC1` [Example E18, 7-[2-(Cyclopropylmethoxy)-4-fluorophenyl]-N-{cis-4-[(methoxyacetyl)amino]cyclohexyl}-2-methyl-1H-pyrrolo[3,2-b]pyridine-3-carboxamide], for which the IC50 is 1 to 10 nM.

For `CC(=O)N1CCC(NC(=O)c2c(C)[nH]c3c(-c4cc(F)ccc4OCC4CC4)ccnc23)CC1` [Example E19, N-(1-Acetylpiperidin-4-yl)-7-[2-(cyclopropylmethoxy)-5-fluorophenyl]-2-methyl-1H-pyrrolo[3,2-b]pyridine-3-carboxamide], the IC50 is 1 to 10 nM.

As to `CCC(=O)N1CCC(NC(=O)c2c(C)[nH]c3c(-c4cc(F)ccc4OCC4CC4)ccnc23)CC1` [Example E20, 7-[2-(Cyclopropylmethoxy)-5-fluorophenyl]-2-methyl-N-(1-propanoylpiperidin-4-yl)-1H-pyrrolo[3,2-b]pyridine-3-carboxamide], the IC50 was < 1 nM.

With `COCC(=O)N1CCC(NC(=O)c2c(C)[nH]c3c(-c4cc(F)ccc4OCC4CC4)ccnc23)CC1` [Example E21, 7-[2-(Cyclopropylmethoxy)-5-fluorophenyl]-N-[1-(methoxyacetyl)piperidin-4-yl]-2-methyl-1H-pyrrolo[3,2-b]pyridine-3-carboxamide], the IC50 is 1 to 10 nM.

For `CC(=O)N[C@H]1CC[C@H](NC(=O)c2c(C)[nH]c3c(-c4cc(F)ccc4OCC4CC4)ccnc23)CC1` [Example E22, N-[trans-4-(Acetylamino)cyclohexyl]-7-[2-(cyclopropylmethoxy)-5-fluorophenyl]-2-methyl-1H-pyrrolo[3,2-b]pyridine-3-carboxamide], the IC50 was < 1 nM.

As to `CCC(=O)N[C@H]1CC[C@H](NC(=O)c2c(C)[nH]c3c(-c4cc(F)ccc4OCC4CC4)ccnc23)CC1` [Example E23, 7-[2-(Cyclopropylmethoxy)-5-fluorophenyl]-2-methyl-N-[trans-4-(propanoylamino)cyclohexyl]-1H-pyrrolo[3,2-b]pyridine-3-carboxamide], the IC50 was < 1 nM.

Turning to `COCC(=O)N[C@H]1CC[C@H](NC(=O)c2c(C)[nH]c3c(-c4cc(F)ccc4OCC4CC4)ccnc23)CC1` [Example E24, 7-[2-(Cyclopropylmethoxy)-5-fluorophenyl]-N-{trans-4-[(methoxyacetyl)amino]cyclohexyl}-2-methyl-1H-pyrrolo[3,2-b]pyridine-3-carboxamide], the IC50 is < 1 nM.

With `CC(=O)N[C@H]1CC[C@@H](NC(=O)c2c(C)[nH]c3c(-c4cc(F)ccc4OCC4CC4)ccnc23)CC1` [Example E25, N-[cis-4-(Acetylamino)cyclohexyl]-7-[2-(cyclopropylmethoxy)-5-fluorophenyl]-2-methyl-1H-pyrrolo[3,2-b]pyridine-3-carboxamide], the IC50 is 1 to 10 nM.

For `CCC(=O)N[C@H]1CC[C@@H](NC(=O)c2c(C)[nH]c3c(-c4cc(F)ccc4OCC4CC4)ccnc23)CC1` [Example E26, 7-[2-(Cyclopropylmethoxy)-5-fluorophenyl]-2-methyl-N-[cis-4-(propanoylamino)cyclohexyl]-1H-pyrrolo[3,2-b]pyridine-3-carboxamide], the IC50 was 1 to 10 nM.
